Laboratory results as given in PMC4920673, “Nitroimidazole carboxamides as antiparasitic agents targeting Giardia lamblia, Entamoeba histolytica and Trichomonas vaginalis” (European Journal of Medicinal Chemistry, 2016).
pEC50: −log10 of the molar value. In brackets after ≈: the same amount, converted by molar mass. Like-named read-outs stand apart in the source and are kept apart here.

Legend:
[1] = Resazurin cytotoxicity assay, HEK293; type: cell-based, Human; settings: human, 24 h, highest concentration 100 μM, n = 3, read-out: CC50 HEK 293
Method in brief: (§1)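 Cells pre-cultured 24 h in DMEM/10% FBS at 37 °C, then exposed 24 h to compound dilution series (top 100 μM). Viability by 5 μM resazurin, 2 h, fluorescence 560/590 nm; 1% Triton X-100 as lysis control; CC50 from curve fitting.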

[2] = tested on: G. lamblia WB trophozoites; test: Light microscopy of G. lamblia WB growth and survival; type: cell-based, Giardia lamblia; settings: for Parasite cell growth by microscopy: 3 × EC50 (metronidazole 18 μM, 12a 1.5 μM), 48 h, relative to vehicle control; for Morphology of treated G. lamblia: 3 × EC50, 48 h, phase contrast
Description: The effect of compounds on G. lamblia WB growth and survival was examined by light microscopy. Briefly, stock compounds were diluted in DMSO (100%) to give 400 × final concentration of compound. […]. Assay plates were incubated for 48 h at 37 °C in the GasPak™ EZ Anaerobe Gas Generating Pouch Systems (VWR, West Chester, PA) to maintain anaerobic conditions throughout the incubation period. The assays were performed in triplicate (3 wells/treatment). […]

[3] = cited from earlier work
E. histolytica HM1:IMSS = test: ATP-bioluminescence growth/survival EC50 assay, E. histolytica; type: cell-based, Entamoeba histolytica; settings: Entamoeba histolytica; for pEC50: read-out: EC50 E. histolytica HM1:IMSS; for EC50: read-out: pEC50 ± SE E. histolytica HM1:IMSS (converted)
Description: (§2) Compounds were screened for antiparasitic activity using an ATP-bioluminescence based assay for cell growth and survival, [24]. […] Viable cell numbers were determined in triplicate using the CellTiter-Glo Luminescent Cell Viability Assay.

giardiasis = settings: cited from earlier work
Giardia = tested on: Giardia; parameters: method as in PMID 23403423; settings: cited from earlier work
[4] = Resazurin cytotoxicity assay, HepG2; type: cell-based, Human; settings: human, 24 h, highest concentration 100 μM, n = 3, read-out: CC50 Hep G2
Method in brief: as §1

G. lamblia 713M3 (MtzR) = test: ATP-bioluminescence growth/survival EC50 assay, G. lamblia 713M3; type: cell-based, Giardia lamblia; settings: Giardia duodenalis; for pEC50: read-out: EC50 G. lamblia 713M3, MtzR strain 713M3, minimum n = 3; for EC50: read-out: pEC50 ± SE G. lamblia 713M3, MtzR strain 713M3 (converted)
Description: as §2

[5] = Metabolic stability in liver microsomes; type: in vitro ADME, human
Description: Metabolic stability studies were performed with human liver microsomes (HMMC-PL, Lot# PL050B-B, Thermo Fisher Scientific USA) with test compound (5 μM) degradation monitored by LC/MS/MS analysis. Stock solutions (2.5 mM) of the test compounds were prepared in DMSO. […] The reaction was initiated by addition of NADPH solution (cofactor) in potassium phosphate buffer (final concentration 1 mM). Aliquots (180 μL) from the reaction mixture were withdrawn (t = 0, 10, 30, 60 and 120 min) and quenched by adding ice-cold stop solution (540 μL) comprising 0.5 μM carbutamide internal standard in acetonitrile: methanol: formic acid (1: 1: 0.001). Reaction samples were incubated at 4 °C for 30 min, centrifuged at 14,000 × g for 8 min and the clear supernatant was transferred to a vial for LC/MS/MS analysis. The percentage of compound metabolised at different times was calculated as a percentage of the levels at the start of incubation (t = 0 min sample). Matrix blank was also prepared as a control. […] LC/MS/MS parameters are detailed in the supplementary information (Supplementary Table 1).

[6] = tested on: C. difficile NAP1/027 (ATCC BAA-1803); test: Broth microdilution MIC assay, C. difficile NAP1/027; type: cell-based, Clostridium difficile; settings: Clostridioides difficile, ATCCBAA1803; strain NAP1/027
Method in brief: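 Strains grown anaerobically in BHIS at 37 °C overnight; compounds two-fold serially diluted (64 to 0.03 μg/mL) in pre-reduced medium under anaerobic atmosphere (5% H2, 10% CO2, 85% N2). Plates incubated 24 h at 37 °C; MIC taken as lowest concentration without visible growth, median of replicates reported.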

G. lamblia WB (MtzS) = test: ATP-bioluminescence growth/survival EC50 assay, G. lamblia WB; settings: for pEC50 / EC50: Giardia duodenalis; for EC50: read-out: pEC50 ± SE G. lamblia WB, MtzS strain WB (converted); for S.I (CC50/EC50): average cytotoxicity against HEK293 and HepG2 / G. lamblia WB activity
Description: as §2

[7] = tested on: C. difficile 630 (ATCC BAA-1382); test: Broth microdilution MIC assay, C. difficile 630; type: cell-based, Clostridium difficile; settings: Clostridioides difficile, ATCCBAA1382
Method in brief: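 Compounds two-fold serially diluted against overnight anaerobic BHIS cultures of the strain, following CLSI methods modified in broth and inoculum for C. difficile. Plates incubated 24 h at 37 °C; MIC is the lowest concentration without visible growth, median reported with range.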

[8] = Plasma protein binding by ultrafiltration; type: in vitro ADME; settings: human; for fraction unbound at 0.5 h, 5 µM: read-out: Plasma protein binding (% bound) (converted)
Description: Plasma Protein Binding (PPB) was performed using an Ultrafiltration method, [28]. […] Samples were incubated at […] for 30 min, then centrifuged at 14,000 × g for 8 min, with the clear supernatant transferred to a vial for LC/MS/MS analysis. […] The fraction of unbound compound was calculated by determining the concentration of the filtered sample and the concentration of unfiltered sample. […] LC/MS/MS parameters are detailed in the supplementary information (Supplementary Table 1).

T. vaginalis F1623 = test: ATP-bioluminescence growth/survival EC50 assay, T. vaginalis; type: cell-based, Trichomonas vaginalis; settings: Trichomonas vaginalis; for pEC50: minimum n = 3
Description: as §2

T. vaginalis = tested on: T. vaginalis; parameters: method as in earlier work; settings: cited from earlier work
H. meleagridis = tested on: H. meleagridis; parameters: method as in earlier work; settings: turkey; cited from earlier work
[9] = read-out: EC50 G. lamblia WB, MtzS strain WB, minimum n = 3
[10] = strain 630, MtzS, median of n = 4, read-out: MIC C. difficile 630
[11] = 5 μM, human liver microsomes 1 mg/mL, NADPH
[12] = pooled human plasma (100%), 5 μM, 100% human plasma, 37 °C, 30 min, ultrafiltration
[13] = read-out: EC50 T. vaginalis F1623, MtzS
[14] = read-out: pEC50 ± SE T. vaginalis F1623, MtzS (converted)

Structure (SMILES)	CC50 at 24 h ([1]; HEK293 cells) [µM]	CC50 at 24 h ([4]; HepG2 cells) [µM]	pEC50 (G. lamblia 713M3 (MtzR))	EC50 (G. lamblia 713M3 (MtzR)) [µM]	MIC [6] [µg/mL]	pEC50 (G. lamblia WB (MtzS); [9])	EC50 (G. lamblia WB (MtzS)) [µM]	MIC [7, 10] [µg/mL]	pEC50 (E. histolytica HM1:IMSS)	EC50 (E. histolytica HM1:IMSS) [µM]	Microsome stability (% remaining at 2 h) [5, 11] [% remaining]	S.I (CC50/EC50) (G. lamblia WB (MtzS))	fraction unbound at 0.5 h, 5 µM [8, 12]	pEC50 (T. vaginalis F1623; [13])	EC50 (T. vaginalis F1623; [14]) [µM]	other results
Cc1ncc([N+](=O)[O-])n1CCO [Compound 1, Metronidazole, reference compound]	> 100	> 100	4.74	18.2	0.5 (≈ 2.92 µM)	5.21	6.17	0.5 (≈ 2.92 µM)	–	–	–	–	–	–	–	Parasite cell growth by microscopy [2]: inhibited; Morphology of treated G. lamblia [2]: remained similar to the vehicle control; Plasma protein binding [3]: mostly unbound; pEC50 (E. histolytica HM1:IMSS; MtzS, minimum n = 3): 5.30; EC50 (E. histolytica HM1:IMSS; MtzS): 5.01 µM; Treatment failure in giardiasis cases (giardiasis): up to 20%; Effect on Giardia cells in prior study (Giardia): slowed the rate of oscillation of the Giardia flagella; Microsome stability (% remaining at 2 h) ([5]; human, microsomes): 100 % remaining; pEC50 (G. lamblia WB (MtzS); read-out: EC50 against G. lamblia strains, G. lamblia strains including metronidazole-resistant strains, stated together): 4.74 to 5.21; MIC ([7]; 630 and NAP1/027 strains together or strain not given, read-out: MIC C. difficile): 0.5 µg/mL (≈ 2.92 µM); fraction unbound at 30 min, 5 μM ([8]; plasma, Plasma protein binding (% bound)): > 0.95; pEC50 (T. vaginalis F1623; MtzS, read-out: EC50 T. vaginalis F1623): 6.10; EC50 (T. vaginalis F1623; MtzS, read-out: pEC50 ± SE T. vaginalis F1623 (converted)): 0.794 µM
CCS(=O)(=O)CCn1c([N+](=O)[O-])cnc1C [Compound 2, tinidazole]	–	–	–	–	–	–	–	–	–	–	–	–	–	–	–	Plasma protein binding [3]: mostly unbound
Cn1c([N+](=O)[O-])cnc1C(=O)NCc1ccc(F)cc1 [Compound 8a, N-(4-fluorobenzyl)-1-methyl-5-nitro-1H-imidazole-2-carboxamide]	> 100	> 100	4.89	12.9	> 64	5.46	3.47	> 64	5.01	9.77	88	>29	0.05	5.28	5.25	fraction unbound at 30 min, 5 μM ([8]; pooled human plasma (100%), 5 μM, 100% human plasma, 37 °C, 30 min, ultrafiltration, read-out: Plasma protein binding (% bound)): ≤ 0.06
CN(C)C(=O)c1ncc([N+](=O)[O-])n1C [Compound 8g, N,N,1-trimethyl-5-nitro-1H-imidazole-2-carboxamide]	> 100	> 100	< 4.70	> 20	64 (≈ 323 µM)	5.62	2.4	32 (≈ 161 µM)	4.85	14.1	–	>42	–	5.89	1.29	Activity in in vivo mouse model of T. vaginalis infection (T. vaginalis): activity; Activity in in vivo model of H. meleagridis infection (H. meleagridis): activity
Cn1c([N+](=O)[O-])cnc1C(=O)N1CCOCC1 [Compound 8h, (1-methyl-5-nitro-1H-imidazol-2-yl)(morpholino)methanone]	> 100	> 100	4.96	11.2	32 (≈ 133 µM)	5.80	1.58	32 (≈ 133 µM)	4.85	14.1	97	>63	0.91	6.22	0.575	Activity in in vivo mouse model of T. vaginalis infection (T. vaginalis): activity; Activity in in vivo model of H. meleagridis infection (H. meleagridis): activity
O=C(NCc1ccc(F)cc1)c1ncc([N+](=O)[O-])[nH]1 [Compound 12a, N-(4-fluorobenzyl)-5-nitro-1H-imidazole-2-carboxamide]	–	–	5.62	2.34	4 (≈ 15.1 µM)	6.30	0.525	4 (≈ 15.1 µM)	5.44	3.63	94	–	–	5.64	2.34	CC50 at 24 h [1]: > 100 µM; Parasite cell growth by microscopy [2]: inhibited; Morphology of treated G. lamblia [2]: altered; CC50 at 24 h [4]: > 100 µM
O=C(c1ncc([N+](=O)[O-])[nH]1)N1CCOCC1 [Compound 12h, Morpholino(5-nitro-1H-imidazol-2-yl)methanone]	> 100	> 100	< 4.70	> 20	2 (≈ 8.84 µM)	5.06	8.71	2 (≈ 8.84 µM)	5.29	5.13	100	>11	0.22	5.54	2.88	–
CCOC(=O)c1nc([N+](=O)[O-])cn1Cc1ccc(OC(F)(F)F)cc1 [Compound 14c, Ethyl 4-nitro-1-(4-(trifluoromethoxy)benzyl)-1H-imidazole-2-carboxylate]	–	–	–	–	> 64	5.22	6.03	> 64	4.29	51.3	–	>17	–	–	–	CC50 at 24 h [1]: > 100 µM; CC50 at 24 h [4]: > 100 µM; melting point: 112 °C
CC(=O)OC[C@H]1O[C@@H]([S-])[C@H](OC(C)=O)[C@@H](OC(C)=O)[C@@H]1OC(C)=O.CCP(CC)CC.[Au+] [auranofin]	–	–	–	–	–	–	–	–	–	–	–	–	–	–	–	Effect on Giardia cells in prior study (Giardia): caused cell blebbing
O=C(Nc1ncc([N+](=O)[O-])s1)c1ccccc1O [tizoxanide]	–	–	–	–	–	–	–	–	–	–	–	–	–	–	–	Plasma protein binding ([3]; active metabolite of nitazoxanide): highly plasma protein bound
